According to the NIST ThermoML archive (doi:10.1021/je7001013):
± gives the expanded uncertainty stated by the source.

What was measured:
[1] = refractive index (Na D-line) (dimensionless); conditions: 101.33 kPa, Liquid
[2] = refractive index (Na D-line) (dimensionless); xn = mol fraction of the nth substance listed; conditions: 101 kPa, Liquid
[3] = xn = mol fraction of the nth substance listed

C[S+](C)[O-] [dimethyl sulfoxide]
Conditions	surface tension liquid-gas [mN/m]
298.15 K	41.7 ± 2.2
303.15 K	41 ± 2.1
308.15 K	40.3 ± 2.1
313.15 K	39.7 ± 2.1
318.15 K	39.1 ± 2.1
323.15 K	38.5 ± 2.1
328.15 K	37.9 ± 2

[1]
Conditions	refractive index
298.15 K	1.4765 ± 0.0016
303.15 K	1.474 ± 0.0016
308.15 K	1.472 ± 0.0016

CC(C)S(=O)C(C)C [2,2'-sulfinylbispropane] + O
Conditions	refractive index, [2]	surface tension liquid-gas, [3] [mN/m]
298.15 K, x1 = 0.0087	1.3435 ± 0.0015	52.5 ± 2.6
298.15 K, x1 = 0.0197	1.353 ± 0.0015	48.8 ± 2.4
298.15 K, x1 = 0.0505	1.38 ± 0.0016	–
298.15 K, x1 = 0.0987	1.407 ± 0.0015	–
298.15 K, x1 = 0.4035	1.453 ± 0.0021	35.9 ± 2
298.15 K, x1 = 0.6002	1.46 ± 0.0015	33.9 ± 1.9
298.15 K, x1 = 0.7756	1.4625 ± 0.0015	32.6 ± 1.8
298.15 K, x1 = 0.8899	1.4635 ± 0.0015	32.2 ± 1.8
303.15 K, x1 = 0.0087	1.343 ± 0.0015	52.4 ± 2.6
303.15 K, x1 = 0.0197	1.352 ± 0.0015	48.1 ± 2.4
303.15 K, x1 = 0.0505	1.3785 ± 0.0015	42.9 ± 2.2
303.15 K, x1 = 0.0987	1.406 ± 0.0015	–
303.15 K, x1 = 0.4035	1.451 ± 0.0016	34.6 ± 1.9
303.15 K, x1 = 0.6002	1.4575 ± 0.0016	33.3 ± 1.9
303.15 K, x1 = 0.7756	1.461 ± 0.0016	32.1 ± 1.8
303.15 K, x1 = 0.8899	1.4625 ± 0.0015	31.7 ± 1.8
308.15 K, x1 = 0.0087	1.342 ± 0.0015	51.5 ± 2.5
308.15 K, x1 = 0.0197	1.3515 ± 0.0015	47.3 ± 2.4
308.15 K, x1 = 0.0505	1.3775 ± 0.0018	41.8 ± 2.2
308.15 K, x1 = 0.0987	1.404 ± 0.0016	35.1 ± 1.9
308.15 K, x1 = 0.4035	1.448 ± 0.0027	34.1 ± 1.9
308.15 K, x1 = 0.6002	1.456 ± 0.0016	32.7 ± 1.8
308.15 K, x1 = 0.7756	1.459 ± 0.0016	31.5 ± 1.8
308.15 K, x1 = 0.8899	1.4605 ± 0.0016	31.1 ± 1.8
313.15 K, x1 = 0.0087	–	50.6 ± 2.5
313.15 K, x1 = 0.0197	–	46.6 ± 2.4
313.15 K, x1 = 0.0505	–	41.2 ± 2.2
313.15 K, x1 = 0.0987	–	36 ± 2
313.15 K, x1 = 0.4035	–	33.4 ± 1.9
313.15 K, x1 = 0.6002	–	32.1 ± 1.8
313.15 K, x1 = 0.7756	–	30.9 ± 1.8
313.15 K, x1 = 0.8899	–	30.6 ± 1.8
318.15 K, x1 = 0.0087	–	49.8 ± 2.5
318.15 K, x1 = 0.0197	–	45.8 ± 2.3
318.15 K, x1 = 0.0505	–	40.6 ± 2.1
318.15 K, x1 = 0.0987	–	37 ± 2
318.15 K, x1 = 0.4035	–	32.8 ± 1.8
318.15 K, x1 = 0.6002	–	31.5 ± 1.8
318.15 K, x1 = 0.7756	–	30.3 ± 1.7
318.15 K, x1 = 0.8899	–	30 ± 1.7
323.15 K, x1 = 0.0087	–	48.9 ± 2.4
323.15 K, x1 = 0.0197	–	45 ± 2.3
323.15 K, x1 = 0.0505	–	39.9 ± 2.1
323.15 K, x1 = 0.0987	–	36.7 ± 2
323.15 K, x1 = 0.4035	–	31.8 ± 1.8
323.15 K, x1 = 0.6002	–	30.4 ± 1.8
323.15 K, x1 = 0.7756	–	29.8 ± 1.7
323.15 K, x1 = 0.8899	–	29.5 ± 1.7
328.15 K, x1 = 0.0087	–	48 ± 2.4
328.15 K, x1 = 0.0197	–	43.7 ± 2.2
328.15 K, x1 = 0.0505	–	39.7 ± 2.1
328.15 K, x1 = 0.0987	–	36.4 ± 2
328.15 K, x1 = 0.4035	–	31 ± 1.8
328.15 K, x1 = 0.6002	–	29.8 ± 1.7
328.15 K, x1 = 0.7756	–	29.3 ± 1.7
328.15 K, x1 = 0.8899	–	28.9 ± 1.7
